Results as given in ChEMBL document CHEMBL3525902, “In vitro metabolism of oxymetazoline: evidence for bioactivation to a reactive metabolite” (Drug Metab Dispos, 2011).

How the values were obtained:
[1] = biological target: T1, Cytochrome P450 2C19 (Homo sapiens, UniProt P33261); experiment: Activity of human recombinant CYP2C19 assessed as 3-((1H-imidazol-2-yl)methyl)-6-(1-hydroxy-2-methylpropan-2-yl)-2,4-dimethylphenol formation at 50 uM in presence of NADPH by LC-MS/MS method; type: ADME; details: recombinant enzyme
[2] = biological target: T2, Cytochrome P450 1A2 (Homo sapiens, UniProt P05177); experiment: Activity of human recombinant CYP1A2 assessed as metabolite formation at 50 uM in presence of NADPH by LC-MS/MS method; type: ADME; details: recombinant enzyme
T2 sequence (P05177 whole entry): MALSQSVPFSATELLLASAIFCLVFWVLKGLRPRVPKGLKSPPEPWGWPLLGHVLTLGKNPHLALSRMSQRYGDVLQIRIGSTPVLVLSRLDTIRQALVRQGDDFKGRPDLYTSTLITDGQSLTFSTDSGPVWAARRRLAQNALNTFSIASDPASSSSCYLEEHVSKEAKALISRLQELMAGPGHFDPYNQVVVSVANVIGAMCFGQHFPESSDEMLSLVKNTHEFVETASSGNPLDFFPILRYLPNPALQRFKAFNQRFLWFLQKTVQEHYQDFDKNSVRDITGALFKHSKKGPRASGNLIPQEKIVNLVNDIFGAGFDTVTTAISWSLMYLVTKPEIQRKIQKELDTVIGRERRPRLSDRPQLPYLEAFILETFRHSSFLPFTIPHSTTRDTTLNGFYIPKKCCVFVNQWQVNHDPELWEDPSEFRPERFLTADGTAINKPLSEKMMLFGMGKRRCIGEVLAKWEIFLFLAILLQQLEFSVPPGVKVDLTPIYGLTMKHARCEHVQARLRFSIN

[3] = biological target: T3, Cytochrome P450 2B6 (Homo sapiens, UniProt P20813); experiment: Activity of human recombinant CYP2B6 assessed as metabolite formation at 50 uM in presence of NADPH by LC-MS/MS method; type: ADME; details: recombinant enzyme
T3 sequence (P20813 whole entry): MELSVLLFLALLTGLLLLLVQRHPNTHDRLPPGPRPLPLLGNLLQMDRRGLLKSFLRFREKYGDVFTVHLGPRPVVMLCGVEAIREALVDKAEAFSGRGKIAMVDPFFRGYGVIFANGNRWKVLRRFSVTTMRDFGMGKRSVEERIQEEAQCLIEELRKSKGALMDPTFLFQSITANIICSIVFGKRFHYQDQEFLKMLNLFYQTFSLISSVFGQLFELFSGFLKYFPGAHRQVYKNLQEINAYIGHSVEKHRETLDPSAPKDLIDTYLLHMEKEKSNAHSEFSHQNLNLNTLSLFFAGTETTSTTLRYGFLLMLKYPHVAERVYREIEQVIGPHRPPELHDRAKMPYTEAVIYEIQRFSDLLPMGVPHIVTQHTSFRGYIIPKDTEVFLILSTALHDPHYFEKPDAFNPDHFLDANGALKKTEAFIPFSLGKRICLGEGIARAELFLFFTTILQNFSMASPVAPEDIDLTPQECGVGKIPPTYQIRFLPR

[4] = biological target: Cytochrome P450 3A4 (Homo sapiens, UniProt P08684); experiment: Activity of human recombinant CYP3A4 assessed as metabolite formation at 50 uM in presence of NADPH by LC-MS/MS method; type: ADME; details: recombinant enzyme
[5] = Drug metabolism in NADPH supplemented rat liver S9 fraction assessed as 3-((1H-imidazol-2-yl)methyl)-6-(1-hydroxy-2-methylpropan-2-yl)-2,4-dimethylphenol formation at 50 uM in presence of glutathione by LC-MS/MS method; type: ADME, subcellular; details: s9, 50 µM
[6] = Drug metabolism in NADPH supplemented rabbit liver S9 fraction assessed as 3-((4,5-dihydro-1H-imidazol-2-yl)methyl)-6-(1-hydroxy-2-methylpropan-2-yl)-2,4-dimethylphenol formation at 50 uM in presence of glutathione by LC-MS/MS method; type: ADME, subcellular, Oryctolagus cuniculus; details: s9, 50 µM
[7] = Drug metabolism in NADPH supplemented rabbit liver S9 fraction assessed as 3-((1H-imidazol-2-yl)methyl)-6-tert-butyl-2,4-dimethylphenol formation at 50 uM in presence of N-acetyl cysteine by LC-MS/MS method; type: ADME, subcellular, Oryctolagus cuniculus; details: s9, 50 µM
[8] = tested on: Liver microsome; experiment: Drug metabolism in NADPH supplemented rat liver microsomes fraction assessed as 3-((4,5-dihydro-1H-imidazol-2-yl)methyl)-6-(1-hydroxy-2-methylpropan-2-yl)-2,4-dimethylphenol formation at 50 uM after 1 hr by LC-MS/MS method; type: ADME
[9] = tested on: Liver microsome; experiment: Drug metabolism in NADPH supplemented human liver microsomes fraction assessed as 3-((1H-imidazol-2-yl)methyl)-6-tert-butyl-2,4-dimethylphenol formation at 50 uM after 1 hr by LC-MS/MS method; type: ADME
[10] = Retention time of the compound at 50 uM by LC-MS/MS method; type: physicochemical
[11] = Drug level in NADPH supplemented rabbit liver S9 fraction treated with 50 uM oxymetazoline assessed as compound-N-acetyl cysteine conjugate formation in presence of N-acetyl cysteine by LC-MS/MS method; type: ADME, subcellular, Oryctolagus cuniculus
[12] = biological target: T1, Cytochrome P450 2C19; experiment: Activity of human recombinant CYP2C19 assessed as 3-((1H-imidazol-2-yl)methyl)-6-tert-butyl-2,4-dimethylphenol formation at 50 uM in presence of NADPH by LC-MS/MS method; type: ADME; details: recombinant enzyme

T1 sequence (P33261 whole entry): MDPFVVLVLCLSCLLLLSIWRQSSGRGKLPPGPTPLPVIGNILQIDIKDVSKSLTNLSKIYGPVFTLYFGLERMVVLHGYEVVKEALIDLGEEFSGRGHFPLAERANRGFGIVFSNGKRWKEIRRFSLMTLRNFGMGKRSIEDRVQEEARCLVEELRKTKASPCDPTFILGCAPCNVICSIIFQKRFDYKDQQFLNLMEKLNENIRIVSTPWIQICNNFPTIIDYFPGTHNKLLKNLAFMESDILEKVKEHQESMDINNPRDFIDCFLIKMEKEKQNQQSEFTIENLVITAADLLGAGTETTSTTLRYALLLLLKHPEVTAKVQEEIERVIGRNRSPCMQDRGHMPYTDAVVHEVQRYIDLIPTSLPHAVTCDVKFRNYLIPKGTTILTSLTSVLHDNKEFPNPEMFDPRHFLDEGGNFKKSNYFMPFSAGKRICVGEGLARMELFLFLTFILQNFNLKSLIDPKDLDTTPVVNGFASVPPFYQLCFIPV
Sequence of Cytochrome P450 3A4 (P08684 whole entry): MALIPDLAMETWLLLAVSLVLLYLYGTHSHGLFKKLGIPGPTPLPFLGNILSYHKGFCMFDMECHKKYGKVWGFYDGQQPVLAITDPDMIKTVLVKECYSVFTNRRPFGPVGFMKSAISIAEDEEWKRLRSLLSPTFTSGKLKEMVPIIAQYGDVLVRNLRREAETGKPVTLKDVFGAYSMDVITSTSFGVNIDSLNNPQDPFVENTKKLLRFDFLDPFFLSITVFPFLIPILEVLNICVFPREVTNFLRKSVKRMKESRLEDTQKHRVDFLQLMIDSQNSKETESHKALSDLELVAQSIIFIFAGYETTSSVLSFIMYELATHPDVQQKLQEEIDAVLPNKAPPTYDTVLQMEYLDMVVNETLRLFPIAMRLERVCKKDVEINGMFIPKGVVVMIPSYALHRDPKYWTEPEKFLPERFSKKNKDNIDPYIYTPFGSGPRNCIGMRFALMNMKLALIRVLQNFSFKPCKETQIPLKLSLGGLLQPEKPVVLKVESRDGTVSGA

Drug metabolism [1]: metabolite_detected
Drug metabolism [2]: metabolite_not_detected
Drug metabolism [3]: metabolite_not_detected
Drug metabolism [4]: metabolite_not_detected
Drug metabolism [5]: metabolite_detected
Drug metabolism [6]: metabolite_detected
Drug metabolism [7]: metabolite_detected
Drug metabolism [8]: metabolite_detected
Drug metabolism [9]: metabolite_detected
Retention_time [10]: 12.2 min
Drug metabolism [11]: metabolite_detected
Drug metabolism [12]: metabolite_detected
SMILES: Cc1cc(C(C)(C)C)c(O)c(C)c1CC1=NCCN1 [OXYMETAZOLINE]
